Results taken from US4699981A, “Cephalosporin derivatives” (Taisho Pharmaceutical Co., Ltd., priority 1985, dated 1987).
≈ marks a conversion by molar mass, not a printed value. Structures can show the parent of a compound that is named as a salt. Where two headings read alike, the source gives them in different places.

Experiments:
[1] = test system: Enterobactor cloacae IFO 13525; assay: Minimal inhibitory concentration, agar plate dilution method; format: cell-based
Method: (§1) The antibacterial activities of the compounds of the present invention against various bacteria (inoculum size : 10^6 cells/ml) were tested by the agar plate dilution method, and the results are shown in the following Table 1.

[2] = test system: Escherichia coli NIHJ JC-2; assay: as above; format: cell-based; details: NIHJJC2
Method: as §1

[3] = test system: Klebsiella pneumoniae T 25; assay: as above; format: cell-based; details: T25
Method: as §1

[4] = test system: Pseudomonas aeruginosa NCTC 10490; assay: as above; format: cell-based; details: NCTC10490
Method: as §1

[5] = test system: Serratia marcescens IID 618; assay: as above; format: cell-based; details: IID618
Method: as §1

[6] = Concentration of the compound in blood after oral administration to rats (bioassay); format: in vivo, Male wister rats; details: rat, 50 mg/kg
Method: Male wister rats (7 weeks old) were administered orally with the test compound, and the change of the concentration of the compound in blood was measured.
Dosage of the test compound: 50 mg/kg
Quantitative method: Bioassy
test bacterium: Escherichia coli SC507)

[7] = Enterobactor cloacae IFO 13525, inoculum size 10^6 cells/ml, read-out: MIC
[8] = Escherichia coli NIHJ JC-2, inoculum size 10^6 cells/ml, read-out: MIC
[9] = Klebsiella pneumoniae T 25, inoculum size 10^6 cells/ml, read-out: MIC
[10] = Pseudomonas aeruginosa NCTC 10490, inoculum size 10^6 cells/ml, read-out: MIC
[11] = Serratia marcescens IID 618, inoculum size 10^6 cells/ml, read-out: MIC

SMILES	MIC [1, 7] [µg/mL]	MIC [2, 8] [µg/mL]	MIC [3, 9] [µg/mL]	MIC [4, 10] [µg/mL]	MIC [5, 11] [µg/mL]	concentration at 1 h [6] [ng/mL]	concentration at 2 h [6] [ng/mL]	concentration at 4 h [6] [ng/mL]	MIC [1] [µg/mL]	MIC ([2]; Escherichia coli) [µg/mL]	MIC ([3]; Klebsiella pneumoniae) [µg/mL]	MIC ([4]; Pseudomonas aeruginosa) [µg/mL]	MIC ([5]; Serratia marcescens) [µg/mL]
C=CCOC(=O)/C=C\SC1=C(C(=O)[O-])N2C(=O)[C@@H](NC(=O)/C(=N\OCC(=O)[O-])c3csc(N)n3)[C@H]2SC1.[Na+].[Na+] [D, 7β-{α-(2-aminothiazole-4-yl)-α-[(Z)-carboxymethoxyimino]acetamido}-3-[(Z)-2-allyloxycarbonylvinylthio]-3-cephem-4-carboxylic acid sodium salt]	–	–	–	–	–	–	–	–	12.5	0.39	0.39	6.25	0.39
CC1=C(C(=O)O)N2C(=O)[C@@H](NC(=O)[C@H](N)c3ccccc3)[C@H]2SC1 [YY, Cefalexin, reference compound]	–	–	–	–	–	–	–	–	> 100	12.5 (≈ 36 µM)	100 (≈ 288 µM)	> 100	> 100

Continued, in another order:

MIC [1, 7] [µg/mL]	MIC [2, 8] [µg/mL]	MIC [3, 9] [µg/mL]	MIC [4, 10] [µg/mL]	MIC [5, 11] [µg/mL]	concentration at 1 h [6] [ng/mL]	concentration at 2 h [6] [ng/mL]	concentration at 4 h [6] [ng/mL]	SMILES	MIC [1] [µg/mL]	MIC ([2]; Escherichia coli) [µg/mL]	MIC ([3]; Klebsiella pneumoniae) [µg/mL]	MIC ([4]; Pseudomonas aeruginosa) [µg/mL]	MIC ([5]; Serratia marcescens) [µg/mL]
25	0.2	0.39	25	1.56	37800	38900	32500	COC(=O)/C=C\SC1=C(C(=O)O)N2C(=O)[C@@H](NC(=O)/C(=N\OCC(=O)O)c3csc(N)n3)[C@H]2SC1 [A, 7β-{α-(2-aminothiazole-4-yl)-β-[(Z)-carboxymethoxyimino]acetamido)}-3[(Z)-2-methoxycarbonylvinylthio]-3-cephem-4-carboxylic acid sodium salt]	–	–	–	–	–
12.5 (≈ 22.4 µM)	0.2 (≈ 0.359 µM)	0.39 (≈ 0.699 µM)	3.13 (≈ 5.61 µM)	0.39 (≈ 0.699 µM)	34000	37100	31000	CCOC(=O)/C=C\SC1=C(C(=O)O)N2C(=O)[C@@H](NC(=O)/C(=N\OCC(=O)O)c3csc(N)n3)[C@H]2SC1 [B]	–	–	–	–	–
6.25 (≈ 10.9 µM)	0.39 (≈ 0.682 µM)	0.39 (≈ 0.682 µM)	12.5 (≈ 21.9 µM)	0.39 (≈ 0.682 µM)	–	–	–	CC(C)OC(=O)/C=C\SC1=C(C(=O)O)N2C(=O)[C@@H](NC(=O)/C(=N\OCC(=O)O)c3csc(N)n3)[C@H]2SC1 [C]	–	–	–	–	–
